Several values for one entry are separate records, joined by “and”; a condition that tells them apart may be missing. Identical values can stand only once.
Columns and labels:
Format in all cases: cell-based
[1] = test system: An + Pf (Aspergillus niger + Penicillium funiculosum); assay: Fungal efficacy testing, modified ASTM 5590 (6-well, mixed inoculum, Example 4); conditions: four weeks; for Total conc, ppm: An + Pf mixed inoculum, NE = no end point at the concentration tested; for % inhibition: An + Pf, at the Total conc
Procedure: (§1) The SI is calculated based on F. C. Kull et.
(§2) A single or blend of biocides was post added into white acrylic latex paint free of biocides to give a maximum total active ingredient/s concentration tested. This paint was then diluted with a biocide free acrylic latex paint at concentrations range of 75 to 12.5% w/w to give desired concentrations for the testing. Depending on the type of biocide blends tested, the total biocides concentrations varies from 200 to 5000 ppm. After biocides addition or dilution each sample was hand mixed for at least a minute until uniformity is achieved. Each of the paint samples as well as a control sample (containing no biocide) were used to prepare films on black plastic-vinyl chloride/acetate copolymer panels (LENETA, Mahwah, N.J.) using a 3 mil bird bar applicator. The panels were thoroughly dried for at least 2 days avoiding direct exposure to sunlight. Square discs (0.5 inch^2, 13 mm^2) were cut out from each panel and were used as the substrate for fungal and algal efficacy tests. This sample size allowed for an agar border when the sample disc was placed into the well of the test plate. Each sample was tested in duplicate
(§3) The appropriate media (BOLD'S 3N for Chlorophytes, BG-11 for Cyanobacteria, and PDA for fungi) were used to support microbial growth. The test plates were maintained at room temp (25° C.-26° C.), in a cycled light-dark environment, for four weeks for algae. Plates for fungal challenge tests were maintained at 30 C for four weeks. At the end of the incubation period the samples were scored for percent area covered by visible microbial growth.
(§4) ASTM 5590 is a standard accelerated test method for determining resistance of various coatings (including paints) to fungal defacement. To accommodate for high-throughput screening, this method was scaled down from petri plates to 6-well plates. To set up the test, an agar plug was placed at the bottom of each well of the sterile 6-well plate. A single coupon was placed with a pair of sterile forceps at the center of the agar plug (on top) with the painted surface facing upwards. Fungal inoculums were prepared by mixing equal concentrations (1×10^6 cfu/ml) and equal volumes (depending on number of samples to be tested) of like growing organisms. Cladosporium herbarum was mixed with Aureobasidium pullulans. Aspergillus niger was mixed with Penicillium funiculosum. Alternaria alternata was mixed with Trichoderma viride. Each well was inoculated with 400 μl of organism mixture (1×10^6 cfu/ml) making sure that the whole surface (paint film as well as the agar surrounding it) was evenly covered. The plates were incubated at 30° C. in presence of moisture, for a period of four weeks. The total percent area covered was evaluated and recorded at the end of each week after the 2nd week and recorded in increments of 5%.

[2] = test system: Aa + Ap (Alternaria alternata + Aureobasidium pullulans); assay: as above; conditions: four weeks; for Total conc, ppm: Aa + Ap mixed inoculum, NE = no end point at the concentration tested; for % inhibition: Aa + Ap, at the Total conc
Procedure: [The source words this procedure for another target and reports this target under the same test.] as §1, §2, §3, §4

[3] = test system: Cp + To + Ta (Calotrix parientina, Trentepohlia odorata, Trentepohlia aurea); assay: Algal efficacy testing, modified ASTM 5589 (6-well, mixed inoculum, Example 4); conditions: four weeks; for Total conc, ppm: Cp + To + Ta mixed inoculum, NE = no end point at the concentration tested; for % inhibition: Cp + To + Ta, at the Total conc
Procedure: as §2, §3
(§5) ASTM 5589 is a standard accelerated test method for determining resistance of various coatings (including paints) to algal defacement. To accommodate for high-throughput screening, this method was scaled down from petri plates to 6-well plates. A single coupon was placed with a pair of sterile forceps at the center of the agar plug (on top) with the painted surface facing upwards. Algal inoculums were prepared by mixing equal concentrations (1×10^6 cfu/ml) and equal volumes (depending on number of samples to be inoculated) of like growing organisms. In this study, Gloeocapsa sp. and Oscillatoria sp. were a mix of cyanobacteria grown on BG-11 media. Chlorella sp., Chlorella kessleri, and Nostoc commune are unicellular chlorphytes that were mixed and grown on Bold media. Trentepohlia aurea, Trentepohlia odorata, and Calotrix parientina are filamentous algae that were mixed and grown on Bold media. Each well was inoculated with 400 μl of organism mixture (1×10^6 cfu/ml) making sure that the whole surface (paint film as well as the agar surrounding it) was evenly covered. The plates were incubated at room temp (25° C.-26° C.) with cyclic exposure to light (OTT-Lite model #OTL4012P, 40 Watt, 26 KLumen) and dark phases, for a period of four weeks. The total area covered was evaluated at the end of each week according to percent area covered in 5% increments. While rating the plates, notations were made for zones of inhibition.

[4] = test system: Cs + Ck + Nc (Chlorella sp., Chlorella kessleri, Nostoc commune); assay: as above; conditions: four weeks; for Total conc, ppm: Cs + Ck + Nc mixed inoculum, NE = no end point at the concentration tested; for % inhibition: Cs + Ck + Nc, at the Total conc
Procedure: as §2, §3, §5

[5] = test system: Gs + Os (Gloeocapsa sp. + Oscillatoria sp.); assay: as above; conditions: four weeks; for Total conc, ppm: Gs + Os mixed inoculum, NE = no end point at the concentration tested; for % inhibition: Gs + Os, at the Total conc
Procedure: as §2, §3, §5

[6] = test system: Ch + Tv (Cladosporium herbarum + Trichoderma viride); assay: Fungal efficacy testing, modified ASTM 5590 (6-well, mixed inoculum, Example 4); conditions: four weeks; for Total conc, ppm: Ch + Tv mixed inoculum, NE = no end point at the concentration tested; for % inhibition: Ch + Tv, at the Total conc
Procedure: [The source words this procedure for another target and reports this target under the same test.] as §1, §2, §3, §4

Aspergillus niger (An) = assay: Fungal efficacy testing, modified ASTM 5590 (12-well, dry paint film); conditions: three weeks
Procedure: (§6) Samples of white acrylic latex paint free of biocides were prepared in 50 ml aliquots. Each biocide was post added to give the necessary active ingredient concentration in the paint. The total biocides concentrations tested were 750, 1500, 2500 and 5000 ppm. After biocides addition, each sample was hand mixed for a minimum of 30 sec, followed by a 3 min run on the paint shaker (RED DEVIL). Each of the paint samples as well as a control sample (containing no biocide) were used to prepare films on black plastic-vinyl chloride/acetate copolymer panels (LENETA, Mahwah, N.J.) using a 3 mil bird bar applicator. The panels were thoroughly dried for 5 days avoiding direct exposure to sunlight. Square discs (15 mm^2) were cut out from each panel and were used as the substrate for fungal and algal efficacy tests. This sample size allowed for an agar border when the sample disc was placed into the well of the test plate.
(§7) The appropriate media (BOLD'S 3N for Chlorophytes, BG-11 for Cyanobacteria, and PDA for fungi) were used to support microbial growth. The test plates were maintained at room temp (25° C.-26° C.), in a cycled light-dark environment, for 3 weeks for algae. Plates for fungal challenge tests were maintained at 30C for three weeks. At the end of incubation period the samples were scored for percent area covered by visible microbial growth.
as §4, with “12-well” for “6-well”, “upwards.” for “upwards. Fungal inoculums were prepared by mixing equal concentrations (1×10^6 cfu/ml) and equal volumes (depending on number of samples to be tested) of like growing organisms. Cladosporium herbarum was mixed with Aureobasidium pullulans. Aspergillus niger was mixed with Penicillium funiculosum. Alternaria alternata was mixed with Trichoderma viride.”, “150” for “400”, “organism” for “organism mixture”, “three” for “four”, “5%. […]” for “5%.”

[7] = test system: Trentepohlia aurea + Trentepohlia odorata (Ta + To); assay: Algal efficacy testing, modified ASTM 5589 (12-well, dry paint film); conditions: three weeks
Procedure: as §6, §7
(§8) ASTM 5589 is a standard accelerated test method for determining resistance of various coatings (including paints) to algal defacement. To accommodate for high-throughput screening, this method was scaled down from petri plates to 12-well plates. A single coupon was placed with a pair of sterile forceps at the center of the agar plug (on top) with the painted surface facing upwards. Each well was inoculated with 150 μl of organism (1×10^8 cfu/ml) making sure that the whole surface (paint film as well as the agar surrounding it) was evenly covered. The plates were incubated at room temp (25° C.-26° C.) with cyclic exposure to light (OTT-Lite model #OTL4012P, 40 Watt, 26 KLumen) and dark phases, for a period of three weeks. The total area covered was evaluated at the end of each week according to percent area covered in 5% increments. While rating the plates, notations were made for zones of inhibition.
as §1

[8] = test system: Calothrix parientina (Cp); assay: as above; conditions: three weeks
Procedure: as §6, §7, §8, §1

Oscillatoria sp. (Os) = assay: as above; conditions: at the Total conc, three weeks
Procedure: as §6, §7, §8, §1

[9] = test system: Chlorella sp. + Chlorella kessleri (Cs + Ck); assay: as above; conditions: at the Total conc, three weeks
Procedure: as §6, §7, §8, §1

Gleocapsa sp. (Gs) = assay: as above; conditions: at the Total conc, three weeks
Procedure: as §6, §7, §8, §1

Nostoc commune (Nc) = assay: as above; conditions: three weeks
Procedure: as §6, §7, §8, §1

[10] = test system: Penicillium funiculosum (Pf); assay: Fungal efficacy testing, modified ASTM 5590 (12-well, dry paint film); conditions: at the Total conc, three weeks
Procedure: as §6, §7
as §4, with “12-well” for “6-well”, “upwards.” for “upwards. Fungal inoculums were prepared by mixing equal concentrations (1×10^6 cfu/ml) and equal volumes (depending on number of samples to be tested) of like growing organisms. Cladosporium herbarum was mixed with Aureobasidium pullulans. Aspergillus niger was mixed with Penicillium funiculosum. Alternaria alternata was mixed with Trichoderma viride.”, “150” for “400”, “organism” for “organism mixture”, “three” for “four”
as §1

Trichoderma viride (Tv) = assay: as above; conditions: three weeks
Procedure: as §6, §7
as §4, with “12-well” for “6-well”, “upwards.” for “upwards. Fungal inoculums were prepared by mixing equal concentrations (1×10^6 cfu/ml) and equal volumes (depending on number of samples to be tested) of like growing organisms. Cladosporium herbarum was mixed with Aureobasidium pullulans. Aspergillus niger was mixed with Penicillium funiculosum. Alternaria alternata was mixed with Trichoderma viride.”, “150” for “400”, “organism” for “organism mixture”, “three” for “four”
as §1

[11] = test system: Cladosporium herbarum (Ch); assay: as above; conditions: at the Total conc, three weeks
Procedure: as §6, §7
as §4, with “12-well” for “6-well”, “upwards.” for “upwards. Fungal inoculums were prepared by mixing equal concentrations (1×10^6 cfu/ml) and equal volumes (depending on number of samples to be tested) of like growing organisms. Cladosporium herbarum was mixed with Aureobasidium pullulans. Aspergillus niger was mixed with Penicillium funiculosum. Alternaria alternata was mixed with Trichoderma viride.”, “150” for “400”, “organism” for “organism mixture”, “three” for “four”
as §1

[12] = test system: Aureobasidium pullulans (Ap); assay: as above; conditions: at the Total conc, three weeks
Procedure: as §6, §7
as §4, with “12-well” for “6-well”, “upwards.” for “upwards. Fungal inoculums were prepared by mixing equal concentrations (1×10^6 cfu/ml) and equal volumes (depending on number of samples to be tested) of like growing organisms. Cladosporium herbarum was mixed with Aureobasidium pullulans. Aspergillus niger was mixed with Penicillium funiculosum. Alternaria alternata was mixed with Trichoderma viride.”, “150” for “400”, “organism” for “organism mixture”, “three” for “four”
as §1

[13] = test system: Alternaria alternata (Aa); assay: as above; conditions: at the Total conc, three weeks
Procedure: as §6, §7
as §4, with “12-well” for “6-well”, “upwards.” for “upwards. Fungal inoculums were prepared by mixing equal concentrations (1×10^6 cfu/ml) and equal volumes (depending on number of samples to be tested) of like growing organisms. Cladosporium herbarum was mixed with Aureobasidium pullulans. Aspergillus niger was mixed with Penicillium funiculosum. Alternaria alternata was mixed with Trichoderma viride.”, “150” for “400”, “organism” for “organism mixture”, “three” for “four”
as §1

[14] = test system: Stachybotris chartarum (Sc); assay: as above; conditions: three weeks
Procedure: as §6, §7
as §4, with “12-well” for “6-well”, “upwards.” for “upwards. Fungal inoculums were prepared by mixing equal concentrations (1×10^6 cfu/ml) and equal volumes (depending on number of samples to be tested) of like growing organisms. Cladosporium herbarum was mixed with Aureobasidium pullulans. Aspergillus niger was mixed with Penicillium funiculosum. Alternaria alternata was mixed with Trichoderma viride.”, “150” for “400”, “organism” for “organism mixture”, “three” for “four”
as §1

[15] = total biocide in paint taken as minimum inhibitory concentration, 30 C
[16] = total biocide in paint taken as minimum inhibitory concentration

Compound | Total conc, ppm [1] | % inhibition [1] | Total conc, ppm [2] | % inhibition [2] | Total conc, ppm [3] | % inhibition [3] | Total conc, ppm [4] | % inhibition [4] | Total conc, ppm [5] | % inhibition [5] | Total conc, ppm [6] | % inhibition [6] | further results
zinc pyrithione [ZPT] | 1250 ppm | 100% | 2500 ppm | 100% | 625 ppm | 100% | 1250 ppm | 100% | 625 ppm | 100% | – | – | –
CCCCCCCCn1sccc1=O [OIT, 2-n-octyl-4-isothiazolin-3-one] | 450 ppm | 100% | 1350 ppm | 100% | 1350 ppm | 95% | 1350 ppm | 100% | 1350 ppm | 100% | 450 ppm | 50% | –
c1ccc2[nH]c(-c3cscn3)nc2c1 [TBZ, thiabendazole] | 625 ppm | 100% | 3750 ppm | 80% | 1875 ppm | 95% | 1250 ppm | 100% | 1875 ppm | 100% | 2500 ppm | 50% | –
CCCCNC(=O)OCC#CI [IPBC, 3-iodo-2-propynyl-butylcarbamate] | – | – | – | – | – | – | – | – | – | – | – | – | % inhibition (Aspergillus niger (An); at the Total conc): 87.5% and 80% and 75%; Total conc, ppm (Aspergillus niger (An); [15]): 2500 ppm and 1500 ppm; % inhibition ([7]; at the Total conc): 85% and 82.5% and 72.5%; Total conc, ppm [7, 16]: 2500 ppm and 1500 ppm; % inhibition ([8]; at the Total conc): 97.5% and 90% and 80%; Total conc, ppm [8, 16]: 2500 ppm and 5000 ppm; % inhibition (Oscillatoria sp. (Os)): 70% and 62.5% and 77.5%; % inhibition [9]: 97.5% and 90% and 70%; % inhibition (Gleocapsa sp. (Gs)): 95% and 50% and 80%; % inhibition (Nostoc commune (Nc); at the Total conc): 87.5% and 90% and 80%; Total conc, ppm (Nostoc commune (Nc); [16]): 1500 ppm and 2500 ppm; % inhibition [10]: 97.5% and 60% and 70%; % inhibition (Trichoderma viride (Tv); at the Total conc): 90% and 72.5% and 62.5%; Total conc, ppm (Trichoderma viride (Tv); [15]): 750 ppm and 1500 ppm; % inhibition [11]: 75% and 80%; % inhibition [12]: 97.5% and 60% and 87.5%; % inhibition [13]: 97.5% and 50% and 100%; % inhibition ([14]; at the Total conc): 82.5%; Total conc, ppm [14, 15]: 2500 ppm

Reference: patent US8592405B2, “Synergistic antimicrobial composition” (Dow Global Technologies LLC, priority 2009, dated 2013)
